{
  "source": "patent US20020122835A1",
  "about": "“Compositions for enhancing muscle tissue recovery and repair” (priority 2001, published 2002)",
  "origin": "cited, not measured here",
  "key": {"[1]": {"conditions": "oral administration, human volunteers; Kobayashi et al 1998"}},
  "data": [
    {"smiles": "CCNC(=O)CC[C@H](N)C(=O)O", "note": "[L-theanine]", "values": [
      {"measurement": "safety in animal experiments", "value": "safe"},
      {"measurement": "feeling of relaxation", "setting": "[1]", "value": "caused a feeling of relaxation"}
    ]}
  ]
}
